Consider 39 molecules from patent US10377753B2, “Substituted 4-azaindoles and their use as GluN2B receptor modulators” (Janssen Pharmaceutica NV, priority 2015, dated 2019).

This assay has as its target cloned human NR1/NR2B ion channels (Homo sapiens (Human), UniProt Q05586+Q13224). Kind of assay: HNR2BC: effects of test articles on cloned human NR1/NR2B ion channels expressed in mammalian cells (FLIPR calcium flux). Type of assay: cell-based. The note with it: Table 5. Put shortly:
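Compounds were added to dye-loaded cells for 5 min with fluorescence monitored for agonism, followed by co-agonists (glutamate ~EC80, glycine 10 μM saturating) for 5 min. Cells stably expressed inducible human NR1/NR2B, and the buffer was pH 7.4. The FLIPR Ca2+ flux signal was normalized against control wells.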
On the technique in general: Calcium flux is commonly read through the fluorescence of an indicator in the cells.

Where [1] appears, read: cloned human NR1/NR2B ion channels.

The structures appear in SMILES notation. pIC50: −log10 of the molar value. Structures can show the parent of a compound that is named as a salt.

cloned human NR1/NR2B ion channels, sequence (Q13224 27-1484, other chains not shown): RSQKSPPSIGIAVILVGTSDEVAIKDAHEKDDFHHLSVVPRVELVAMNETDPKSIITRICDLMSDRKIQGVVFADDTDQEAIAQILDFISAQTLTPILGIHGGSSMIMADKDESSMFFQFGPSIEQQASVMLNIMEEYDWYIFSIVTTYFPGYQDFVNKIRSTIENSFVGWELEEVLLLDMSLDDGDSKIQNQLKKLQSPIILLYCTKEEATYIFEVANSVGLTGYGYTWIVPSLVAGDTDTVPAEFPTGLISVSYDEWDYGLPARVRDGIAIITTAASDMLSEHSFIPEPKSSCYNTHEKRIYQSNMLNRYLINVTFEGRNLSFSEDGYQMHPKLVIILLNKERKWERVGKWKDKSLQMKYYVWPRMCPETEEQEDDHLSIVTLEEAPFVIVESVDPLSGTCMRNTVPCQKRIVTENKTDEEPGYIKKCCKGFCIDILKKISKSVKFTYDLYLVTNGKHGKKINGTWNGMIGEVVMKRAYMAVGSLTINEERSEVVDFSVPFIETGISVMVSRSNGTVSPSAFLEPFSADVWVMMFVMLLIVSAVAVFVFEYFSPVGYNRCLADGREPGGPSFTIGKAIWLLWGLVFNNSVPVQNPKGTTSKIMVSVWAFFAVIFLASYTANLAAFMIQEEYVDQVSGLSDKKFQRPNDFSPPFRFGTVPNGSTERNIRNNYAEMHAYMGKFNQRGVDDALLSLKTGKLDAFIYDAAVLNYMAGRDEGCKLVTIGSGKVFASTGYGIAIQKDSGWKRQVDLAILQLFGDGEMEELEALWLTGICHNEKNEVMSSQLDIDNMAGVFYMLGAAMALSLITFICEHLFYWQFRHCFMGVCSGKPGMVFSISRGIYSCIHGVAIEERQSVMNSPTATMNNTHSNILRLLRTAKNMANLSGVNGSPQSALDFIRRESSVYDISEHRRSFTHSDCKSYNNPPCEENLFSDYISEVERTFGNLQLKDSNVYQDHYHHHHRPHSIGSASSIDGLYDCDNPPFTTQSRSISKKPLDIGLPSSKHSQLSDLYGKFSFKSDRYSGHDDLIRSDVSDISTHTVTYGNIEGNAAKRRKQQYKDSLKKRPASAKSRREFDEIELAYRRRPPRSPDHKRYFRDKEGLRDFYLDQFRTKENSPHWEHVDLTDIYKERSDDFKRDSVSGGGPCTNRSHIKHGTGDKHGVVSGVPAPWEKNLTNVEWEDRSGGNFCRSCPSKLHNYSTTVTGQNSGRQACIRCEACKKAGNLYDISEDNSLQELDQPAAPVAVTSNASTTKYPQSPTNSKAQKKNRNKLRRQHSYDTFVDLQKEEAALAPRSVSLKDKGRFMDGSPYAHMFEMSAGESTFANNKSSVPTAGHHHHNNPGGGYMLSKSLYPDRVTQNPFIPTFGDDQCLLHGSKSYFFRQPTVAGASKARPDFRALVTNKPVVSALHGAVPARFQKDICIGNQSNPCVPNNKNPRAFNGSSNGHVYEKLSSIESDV

As a reminder, the pIC50 is the negative decadic logarithm of the IC50, by convention in mol/L. Turning to `CN(CC(F)(F)F)C(=O)Cn1ccc2ncc(-c3ccc(F)cc3)cc21` [Example 411, 2-[6-(4-Fluorophenyl)pyrrolo[3,2-b]pyridin-1-yl]-N-methyl-N-(2,2,2-trifluoroethyl)acetamide], under setting [1], the pIC50 was 7.60.

Turning to `O=C(Cn1cc(Cl)c2ncc(-c3ccc(F)c(C(F)(F)F)c3)cc21)N1CCC1` [Example 523, 1-(Azetidin-1-yl)-2-[3-chloro-6-[4-fluoro-3-(trifluoromethyl)phenyl]pyrrolo[3,2-b]pyridin-1-yl]ethanone], the pIC50 under setting [1] was 6.80.

As to `Cc1cc(-c2cnc3c(Cl)cn(CC(=O)N(C)C)c3c2)ccc1F` [Example 146, 2-[3-Chloro-6-(4-fluoro-3-methyl-phenyl)pyrrolo[3,2-b]pyridin-1-yl]-N,N-dimethyl-acetamide], the pIC50 (cloned human NR1/NR2B) is 6.00.

On to `Cc1cccc(-c2cnc3c(C)cn(CC(=O)N4CC(F)(F)C4)c3c2)c1F` [Example 564, 1-(3,3-Difluoroazetidin-1-yl)-2-[6-(2-fluoro-3-methyl-phenyl)-3-methyl-pyrrolo[3,2-b]pyridin-1-yl]ethanone], for which, under setting [1], the pIC50 was 7.00.

For `Cc1cc(-c2cnc3ccn(CC4CC4)c3c2)ccc1F` [Example 174, 1-(Cyclopropylmethyl)-6-(4-fluoro-3-methyl-phenyl)pyrrolo[3,2-b]pyridine trifluoroacetate salt], for the setting “cloned human NR1/NR2B”, the pIC50 is 6.80.

`CN(C)C(=O)Cn1ccc2ncc(-c3cccc(C(F)F)c3)cc21` [Example 377, 2-[6-[3-(Difluoromethyl)phenyl]pyrrolo[3,2-b]pyridin-1-yl]-N,N-dimethyl-acetamide]: the negative-log IC50 (pIC50) under setting [1] was 8.00.

On to `Cc1cn(CC(=O)N2CC(F)C2)c2cc(-c3cccc(C(F)(F)F)c3)cnc12` [Example 554, 1-(3-Fluoroazetidin-1-yl)-2-[3-methyl-6-[3-(trifluoromethyl)phenyl]pyrrolo[3,2-b]pyridin-1-yl]ethanone], for which the pIC50 under setting [1] is 6.70.

For the molecule `Cc1cn(CC(=O)N2CC(F)C2)c2cc(-c3ccccc3)cnc12` [Example 578, 1-(3-Fluoroazetidin-1-yl)-2-(3-methyl-6-phenyl-pyrrolo[3,2-b]pyridin-1-yl)ethanone], the pIC50 under setting [1] is 6.90.

For `CCc1ccc(-c2cnc3c(Cl)cn(CC(=O)N4CC(F)C4)c3c2)s1` [Example 424, 2-[3-Chloro-6-(5-ethyl-2-thienyl)pyrrolo[3,2-b]pyridin-1-yl]-1-(3-fluoroazetidin-1-yl)ethanone], under setting [1], the pIC50 is 7.50.

Regarding `Cc1cc(-c2cnc3ccn(CC(=O)N4CCCC(F)C4)c3c2)ccc1F` (racemic) [Example 199, (R/S)-2-[6-(4-Fluoro-3-methyl-phenyl)pyrrolo[3,2-b]pyridin-1-yl]-1-(3-fluoro-1-piperidyl)ethanone trifluoroacetate salt], the pIC50 (cloned human NR1/NR2B) was 6.70.

For the molecule `CCc1ccc(-c2cnc3ccn(CC(=O)N4CCCC4)c3c2)s1` [Example 282, 2-[6-(5-Ethyl-2-thienyl)pyrrolo[3,2-b]pyridin-1-yl]-1-pyrrolidin-1-yl-ethanone], the pIC50 (cloned human NR1/NR2B) is 7.10.

With `O=C(Cn1cc(Cl)c2ncc(-c3ccc(F)cc3)cc21)N1CCCC1` [Example 9, 2-[3-Chloro-6-(4-fluorophenyl)pyrrolo[3,2-b]pyridin-1-yl]-1-pyrrolidin-1-yl-ethanone], the pIC50 (cloned human NR1/NR2B) is 7.20.

In the case of `CCN(C)C(=O)Cn1ccc2ncc(-c3cccc(C(F)(F)F)c3F)cc21` [Example 464, N-Ethyl-2-[6-[2-fluoro-3-(trifluoromethyl)phenyl]pyrrolo[3,2-b]pyridin-1-yl]-N-methyl-acetamide], under setting [1], the pIC50 is 7.90.

For `O=C(Cn1cc(Cl)c2ncc(-c3ccc(F)cc3)cc21)C1CC1` [Example 384, 2-[3-Chloro-6-(4-fluorophenyl)pyrrolo[3,2-b]pyridin-1-yl]-1-cyclopropyl-ethanone], the pIC50 under setting [1] is 7.70.

As for `CCC(=O)Cn1cc(F)c2ncc(-c3ccc(F)cc3)cc21` [Example 333, 1-[3-Fluoro-6-(4-fluorophenyl)pyrrolo[3,2-b]pyridin-1-yl]butan-2-one], the pIC50 (cloned human NR1/NR2B) is 5.20.

With `CCc1ccc(-c2cnc3ccn(CC(=O)N4CC(F)(F)C4)c3c2)s1` [Example 284, 1-(3,3-Difluoroazetidin-1-yl)-2-[6-(5-ethyl-2-thienyl)pyrrolo[3,2-b]pyridin-1-yl]ethanone], the pIC50 (cloned human NR1/NR2B) was 7.00.

Regarding `O=C(Cn1cc(F)c2ncc(-c3ccccc3)cc21)N1CCC1` [Example 497, 1-(Azetidin-1-yl)-2-(3-fluoro-6-phenyl-pyrrolo[3,2-b]pyridin-1-yl)ethanone], the pIC50 under setting [1] is 7.50.

On to `O=C(Cn1cc(Cl)c2ncc(-c3cccc(Cl)c3)cc21)N1CCC1` [Example 526, 1-(Azetidin-1-yl)-2-[3-chloro-6-(3-chlorophenyl)pyrrolo[3,2-b]pyridin-1-yl]ethanone], for which the pIC50 under setting [1] was 7.20.

`CN(C)C(=O)Cn1ccc2ncc(-c3ccccc3)cc21` [Example 433, N,N-Dimethyl-2-(6-phenylpyrrolo[3,2-b]pyridin-1-yl)acetamide]: the pIC50 under setting [1] is 7.60.

Consider `Cc1ccc(F)c(-c2cnc3ccn(CC(=O)N(C)C)c3c2)c1` [Example 445, 2-[6-(2-Fluoro-5-methyl-phenyl)pyrrolo[3,2-b]pyridin-1-yl]-N,N-dimethyl-acetamide], for which the pIC50 under setting [1] was 6.40.

Consider `O=C(Cn1ccc2ncc(-c3ccc(F)cc3)cc21)NCCO` [Example 253, 2-[6-(4-Fluorophenyl)pyrrolo[3,2-b]pyridin-1-yl]-N-(2-hydroxyethyl)acetamide], for which, where the note is “cloned human NR1/NR2B”, the pIC50 is 7.10.

As to `O=C(Cn1ccc2ncc(-c3ccc(F)cc3)cc21)N1CC(F)(F)C1` [Example 213, 1-(3,3-Difluoroazetidin-1-yl)-2-[6-(4-fluorophenyl)pyrrolo[3,2-b]pyridin-1-yl]ethanone], for the setting “cloned human NR1/NR2B”, the pIC50 was 6.20.

Regarding `CC1(NC(=O)Cn2ccc3ncc(-c4ccc(F)cc4)cc32)CC1` [Example 232, 2-[6-(4-Fluorophenyl)pyrrolo[3,2-b]pyridin-1-yl]-N-(1-methylcyclopropyl)acetamide], where the note is “cloned human NR1/NR2B”, the pIC50 was 5.00.

As for `CN(C)C(=O)Cn1cc(F)c2ncc(-c3cccs3)cc21` [Example 387, 2-[3-Fluoro-6-(2-thienyl)pyrrolo[3,2-b]pyridin-1-yl]-N,N-dimethyl-acetamide], the pIC50 under setting [1] is 7.20.

Take `O=C(Cn1ccc2ncc(-c3cccc(C(F)(F)F)c3)cc21)N1CC(F)C1` [Example 265, 1-(3-Fluoroazetidin-1-yl)-2-[6-[3-(trifluoromethyl)phenyl]pyrrolo[3,2-b]pyridin-1-yl]ethanone trifluoroacetate salt]: the pIC50 (cloned human NR1/NR2B) was 7.00.

`Cc1cc(-c2cnc3ccn(CS(C)(=O)=O)c3c2)ccc1F` [Example 332, 6-(4-Fluoro-3-methyl-phenyl)-1-(methylsulfonylmethyl)pyrrolo[3,2-b]pyridine]: the pIC50 (cloned human NR1/NR2B) was 5.80.

As for `CN(C)C(=O)Cn1ccc2ncc(-c3ccc(C(F)F)s3)cc21` [Example 639, 2-[6-[5-(Difluoromethyl)-2-thienyl]pyrrolo[3,2-b]pyridin-1-yl]-N,N-dimethyl-acetamide], under setting [1], the pIC50 is 6.70.

For `O=C(Cn1cc(Cl)c2ncc(-c3cc(F)cc(F)c3)cc21)N1CC(F)C1` [Example 537, 2-[3-Chloro-6-(3,5-difluorophenyl)pyrrolo[3,2-b]pyridin-1-yl]-1-(3-fluoroazetidin-1-yl)ethanone], the pIC50 under setting [1] was 7.90.

As to `Cc1cccc(-c2cnc3c(C)cn(CC(=O)N4CC(F)C4)c3c2)c1F` [Example 563, 1-(3-Fluoroazetidin-1-yl)-2-[6-(2-fluoro-3-methyl-phenyl)-3-methyl-pyrrolo[3,2-b]pyridin-1-yl]ethanone], the pIC50 under setting [1] is 7.40.

In the case of `CN(C)C(=O)Cn1cc(Cl)c2ncc(-c3cccs3)cc21` [Example 420, 2-[3-Chloro-6-(2-thienyl)pyrrolo[3,2-b]pyridin-1-yl]-N,N-dimethyl-acetamide], the pIC50 under setting [1] was 6.20.

Turning to `Cc1ccc(-c2cnc3c(C)cn(CC(=O)N4CC(F)(F)C4)c3c2)s1` [Example 632, 1-(3,3-Difluoroazetidin-1-yl)-2-[3-methyl-6-(5-methyl-2-thienyl)pyrrolo[3,2-b]pyridin-1-yl]ethanone], the pIC50 under setting [1] is 6.70.

For the molecule `CCc1ccc(-c2cnc3ccn(CC(=O)N(C)C)c3c2)s1` [Example 388, 2-[6-(5-Ethyl-2-thienyl)pyrrolo[3,2-b]pyridin-1-yl]-N,N-dimethyl-acetamide trifluoroacetate salt], under setting [1], the pIC50 was 6.10.

For `O=C(Cn1cc(Cl)c2ncc(-c3cccc(C(F)(F)F)c3)cc21)N1CCC1` [Example 298, 1-(Azetidin-1-yl)-2-[3-chloro-6-[3-(trifluoromethyl)phenyl]pyrrolo[3,2-b]pyridin-1-yl]ethanone], where the note is “cloned human NR1/NR2B”, the pIC50 was 6.30.

For the molecule `O=C(Cn1ccc2ncc(-c3cncc(C(F)(F)F)c3)cc21)N1CCC1` [Example 102, 1-(Azetidin-1-yl)-2-[6-[5-(trifluoromethyl)-3-pyridyl]pyrrolo[3,2-b]pyridin-1-yl]ethanone], the pIC50 (cloned human NR1/NR2B) was 6.40.

As for `Cc1cc(-c2cnc3ccn(CCC(C)C)c3c2)ccc1F` [Example 171, 6-(4-Fluoro-3-methyl-phenyl)-1-isopentyl-pyrrolo[3,2-b]pyridine trifluoroacetate salt], the pIC50 (cloned human NR1/NR2B) is 6.70.

As to `Cc1cc(-c2cnc3c(Cl)cn(Cc4cnn(C)c4)c3c2)ccc1F` [Example 240, 3-Chloro-6-(4-fluoro-3-methyl-phenyl)-1-[(1-methylpyrazol-4-yl)methyl]pyrrolo[3,2-b]pyridine], the pIC50 (cloned human NR1/NR2B) was 6.30.

As for `O=C(Cn1ccc2ncc(-c3ccccc3F)cc21)N1CCC1` [Example 71, 1-(azetidin-1-yl)-2-[6-(2-fluorophenyl)pyrrolo[3,2-b]pyridin-1-yl]ethanone], under “cloned human NR1/NR2B”, the pIC50 was 5.10.

Take `Cc1cccc(-c2cnc3c(F)cn(CC(=O)N4CCC4)c3c2)c1` [Example 473, 1-(Azetidin-1-yl)-2-[3-fluoro-6-(m-tolyl)pyrrolo[3,2-b]pyridin-1-yl]ethanone]: the pIC50 under setting [1] was 7.50.

Consider `Cc1ncc(-c2cnc3ccn(CC(=O)N4CCC4)c3c2)s1` [Example 404, 1-(Azetidin-1-yl)-2-[6-(2-methylthiazol-5-yl)pyrrolo[3,2-b]pyridin-1-yl]ethanone], for which the pIC50 under setting [1] was 7.50.
